Assays:
[1] = molecular target: T1, human Y5 receptor (hNPY-5) (Homo sapiens, UniProt Q15761); test: Radioligand binding to membranes, cloned human Y5 receptor; details: cloned human NPY Y5 receptor, radioligand competition binding; Tables 1-3; read-out: Ki, nM hNPY-5
T1 construct: expressed in transfected cells; host or cells: mouse fibroblast LM(tk-) cells, e.g. L-hY5-7 (ATCC CRL-11995)
T1 sequence (Q15761 1-445): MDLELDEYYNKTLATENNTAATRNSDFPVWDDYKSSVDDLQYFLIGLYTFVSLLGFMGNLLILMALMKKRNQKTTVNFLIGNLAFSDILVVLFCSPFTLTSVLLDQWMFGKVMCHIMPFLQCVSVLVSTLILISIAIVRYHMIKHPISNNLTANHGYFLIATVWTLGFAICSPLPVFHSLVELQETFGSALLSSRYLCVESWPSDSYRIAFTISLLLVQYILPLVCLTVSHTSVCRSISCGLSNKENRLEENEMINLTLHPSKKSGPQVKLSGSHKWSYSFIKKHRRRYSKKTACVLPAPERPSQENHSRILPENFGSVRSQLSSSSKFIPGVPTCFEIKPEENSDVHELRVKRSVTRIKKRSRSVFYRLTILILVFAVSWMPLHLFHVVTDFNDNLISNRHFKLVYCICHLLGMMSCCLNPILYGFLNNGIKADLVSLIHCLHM
Procedure, shortened: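 Competition binding on membranes from stably transfected 293 or LM(tk-) cells, with 0.08 nM ¹²⁵I-PYY in pH 7.4 HEPES buffer plus 0.1% BSA, 120 min at 30 °C, filtration and counting. Nonspecific binding defined by 300 nM human NPY, or 100 nM human PP for Y4; nonlinear regression.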

[2] = molecular target: hNPY-1,2,4 (human Y1, Y2, Y4 receptors); test: Radioligand binding to membranes, cloned human Y1, Y2 and Y4 receptors; details: one bound given for all three
Method: Binding of the compounds of the present invention to human Y1, Y2, Y4, and Y5 receptors was evaluated using stably transfected 293 or LM(tk-) cells as described above. Stably transfected cell lines which may be used for binding assays include, for example, for the human Y1 receptor, 293-hY1-5 (deposited Jun. 4, 1996, under ATCC Accession No. CRL-12121), for the human Y2 receptor, 293-hY2-10 (deposited Jan. 27, 1994, under ATCC Accession No. CRL-11537), for the human Y4 receptor, L-hY4-3 (deposited Jan. 11, 1995, under ATCC Accession No. CRL-11779), and for human Y5 receptor, L-hY5-7 (deposited Nov. 15, 1995, under ATCC Accession No. CRL-11995). These cell lines were deposited with the American Type Culture Collection (ATCC), 10801 University Blvd., Manassas, Va. 20110-2209, U.S.A. under the provisions of the Budapest Treaty for the International Recognition of the Deposit of Microorganisms for the Purposes of Patent Procedure.
Membranes were harvested from COS-7 cells 48 hours after transient transfection. Adherent cells were washed twice in ice-cold phosphate buffered saline (138 mM NaCl, 8.1 mM Na2HPO4, 2.5 mM KCl, 1.2 mM KH2PO4, 0.9 mM CaCl2, 0.5 mM MgCl2, pH 7.4) and lysed by sonication in ice-cold sonication buffer (20 mM Tris-HCl, 5 mM EDTA, pH 7.7). Large particles and debris were cleared by low speed centrifugation (200×g, 5 min, 4° C.). Membranes were collected from the supernatant fraction by centrifugation (32,000×g, 18 min, 4° C.), washed with ice-cold hypotonic buffer, and collected again by centrifugation (32,000×g, 18 min, 4° C.). The final membrane pellet was resuspended by sonication into a small volume of ice-cold binding buffer (˜1 ml for every 5 plates: 10 mM NaCl, 20 mM HEPES, 0.22 mM KH2PO4, 1.26 mM CaCl2, 0.81 mM MgSO4, pH 7.4). Protein concentration was measured by the Bradford method (Bradford, 1976) using Bio-Rad Reagent, with bovine serum albumin as a standard. Membranes were held on ice for up to one hour and used fresh, or flash-frozen and stored in liquid nitrogen.
Membranes were prepared similarly from 293, LM(tk-), and NIH-3T3 cells. To prepare membranes from baculovirus infected cells, 2×10^7 Sf21 cells were grown in 150 mm tissue culture dishes and infected with a high-titer stock of hY5BB3. Cells were incubated for 2-4 days at 27° C., no CO2 before harvesting and membrane preparation as described above.
Membrane suspensions were diluted in binding buffer supplemented with 0.1% bovine serum albumin to yield an optimal membrane protein concentration so that ^125I-PYY (or alternative radioligand such as ^125I-NPY, ^125I-PYY3-36, or ^125I-[Leu^31Pro^34]PYY) bound by membranes in the assay was less than 10% of ^125I-PYY (or alternative radioligand) delivered to the sample (100,000 dpm/sample=0.08 nM for competition binding assays). ^125I-PYY (or alternative radioligand) and peptide competitors were also diluted to desired concentrations in supplemented binding buffer. Individual samples were then prepared in 96-well polypropylene microtiter plates by mixing 125I-PYY (25 μL) (or alternative radioligand), competing peptides or supplemented binding buffer (25 μL), and finally, membrane suspensions (200 μL). Samples were incubated in a 30° C. water bath with constant shaking for 120 min. Incubations were terminated by filtration over Whatman GF/C filters (pre-coated with 1% polyethyleneimine and air-dried before use), followed by washing with 5 mL of ice-cold binding buffer. Filter-trapped membranes were impregnated with MeltiLex solid scintillant (Wallac, Turku, Finland) and counted for ^125I in a Wallac Beta-Plate Reader. Alternatively, incubations were carried out in GF/C filter plates (pre-coated with 1% polyethyleneimine and air-dried before use), followed by vacuum filtration and three washes of 300 μL of ice-cold binding buffer. 50 μL of UltimaGold (Packard) scintillant were added and counted for ^125I in a Wallac MicroBeta Trilux. […]

COC[C@@H]1CCCN1S(=O)(=O)c1ccc(Nc2nc3c(s2)CCCc2ccc(F)cc2-3)cc1 [Example 9, 1-Aza-9-fluoro-4,5-dihydro-2-(4-((2(S)-methoxy-methyl)-pyrrolidine-1-yl)sulfonyl)phenylamino-3-thia-benzo[e]azulene]
Ki [1]: 15.4 nM | Ki [2]: > 10000 nM | melting point: 186 to 188 °C

NS(=O)(=O)NCCCCCNc1nc2c(s1)CCCc1ccc(F)cc1-2 [Example 25, 1-Aza-9-fluoro-4,5-dihydro-2-(5-aminosulfonylamino)-pentylamino-3-thia-benzo[e]azulene]
Ki [1]: 2.9 nM | Ki [2]: > 10000 nM

O=S(=O)(NC[C@H]1CC[C@H](Nc2nc3c(s2)CCCc2ccc(F)cc2-3)CC1)c1ccccc1F [Example 26, trans-1-aza-9-fluoro-2-(4-(2-fluorophenyl)sulfonyl-amino-methyl)cyclohexylamino-4,5-dihydro-3-thia-benzo [e]-azulene]
Ki [1]: 13.1 nM | Ki [2]: > 10000 nM

COc1ccc(S(=O)(=O)NC[C@H]2CC[C@H](Nc3nc4c(s3)CCCc3ccc(F)cc3-4)CC2)cc1 [Example 27, trans-1-Aza-9-fluoro-4,5-dihydro-2-{4-(4-methoxy-phenyl)-sulfonylaminomethyl}cyclohexylamino-3-thia-benzo[e]azulene]
Ki [1]: 9.2 nM | Ki [2]: > 10000 nM

O=S(=O)(NC[C@H]1CC[C@H](Nc2nc3c(s2)CCCc2ccc(F)cc2-3)CC1)c1c(F)cccc1F [Example 28, trans-N2-(4-(2,6-Difluorophenylsulfonyl)aminomethyl)-cyclohexyl-9-fluoro-5,6-dihydro-4H-benzo[6,7]-cyclohepta-[d][1,3]-thiazol-2-amine]
Ki [1]: 4 nM | Ki [2]: > 10000 nM

O=S(=O)(Cc1ccccc1)NC[C@H]1CC[C@H](Nc2nc3c(s2)CCCc2ccc(F)cc2-3)CC1 [Example 29, trans-1-Aza-2-{4-benzylsulfonylaminomethyl}-cyclohexylamino-9-fluoro-4,5-dihydro-3-thia-benzo[e]-azulene]
Ki [1]: 10.3 nM | Ki [2]: > 10000 nM

O=S(=O)(NC[C@H]1CC[C@H](Nc2nc3c(s2)CCCc2ccc(F)cc2-3)CC1)c1cccs1 [Example 30, trans-N2-(4-(2-Thienylsulfonyl)aminomethyl)-cyclohexyl-9-fluoro-5,6-dihydro-4H-benzo[6,7]-cyclohepta[d][1,3]thiazol-2-amine]
Ki [1]: 4.2 nM | Ki [2]: > 10000 nM

CCS(=O)(=O)NC[C@H]1CC[C@H](Nc2nc3c(s2)CCCc2ccc(F)cc2-3)CC1 [Example 31, trans-N2-(4-Ethylsulfonylaminomethyl)cyclohexyl-9-fluoro-5,6-dihydro-4H-benzo[6,7]cyclohepta[d][1,3]-thiazol-2-amine]
Ki [1]: 3.9 nM | Ki [2]: > 10000 nM

Cn1cnc(S(=O)(=O)NC[C@H]2CC[C@H](Nc3nc4c(s3)CCCc3ccc(F)cc3-4)CC2)c1 [Example 32, trans-1-Aza-9-fluoro-4,5-dihydro-2-{4-(1-methylimidazolyl-4-yl)sulfonylaminomethyl}cyclohexyl-amino-3-thia-benzo[e]azulene]
Ki [1]: 2.9 nM | Ki [2]: > 10000 nM

Cc1noc(C)c1S(=O)(=O)NC[C@H]1CC[C@H](Nc2nc3c(s2)CCCc2ccc(F)cc2-3)CC1 [Example 33, trans-1-Aza-9-fluoro-4,5-dihydro-2-{4-(3,5-dimethylisoxazol-4-yl)sulfonylaminomethyl}cyclohexyl-amino-3-thia-benzo[e]azulene]
Ki [1]: 6.8 nM | Ki [2]: > 10000 nM

O=S(=O)(CC(F)(F)F)NCCCCNc1nc2c(s1)CCCc1ccc(F)cc1-2 [Example 39, 1-Aza-9-fluoro-4,5-dihydro-2-(4-(2,2,2-trifluoroethyl)-sulfonylamino)butylamino-3-thia-benzo[e]azulene]
Ki [1]: 4.8 nM | Ki [2]: > 10000 nM

O=S(=O)(NC[C@H]1CC[C@H](Nc2nc3c(s2)CCCc2ccc(F)cc2-3)CC1)c1ccc(F)c(F)c1 [Example 40, trans-1-Aza-9-fluoro-2-{4-(3,4-difluorophenyl)-sulfonyl-aminomethyl}cyclohexylamino-4,5-dihydro-3-thia-benzo[e]azulene]
Ki [1]: 19.5 nM | Ki [2]: > 10000 nM

O=S(=O)(N[C@H]1CC[C@H](CNc2nc3c(s2)CCCc2ccc(F)cc2-3)CC1)c1ccccc1F [Example 42, trans-1-Aza-9-fluoro-2-{4-(2-fluoro)phenylsulfonyl-amino}-cyclohexylmethylamino-4,5-dihydro-3-thia-benzo[e]azulene]
Ki [1]: 3.9 nM | Ki [2]: > 10000 nM

COc1ccc(C)cc1S(=O)(=O)NC[C@H]1CC[C@H](Nc2nc3c(s2)CCOc2ccccc2-3)CC1 [Example 48, trans-1-Aza-4,5-dihydro-2-{4-(2-methoxy-5-methyl)phenyl-sulfonylaminomethyl}cyclohexylamino-6-oxa-3-thia-benzo[e]azulene]
Ki [1]: 15.1 nM | Ki [2]: > 10000 nM

O=S(=O)(N[C@H]1CC[C@H](Nc2nc3c(s2)CCCc2ccc(F)cc2-3)CC1)c1cccnc1 [Example 54, trans-1-Aza-9-fluoro-4,5-dihydro-2-(4-(3-pyridyl-sulfonylamino)cyclohexyl)amino-3-thia-benzo[e]azulene]
Ki [1]: 11.9 nM | Ki [2]: > 10000 nM

CCN(CC)S(=O)(=O)NC[C@H]1CC[C@H](Nc2nc3c(s2)CCSc2ccccc2-3)CC1 [Example 102, N′-{[4-(4,5-Dihydrobenzo[2,3]thiepino[4,5-d][1,3]thiazol-2-ylamino)cyclohexyl]methyl}-N,N-diethylsulfamide]
Ki [1]: 5.2 nM | Ki [2]: > 10000 nM

CCN(CC)S(=O)(=O)NCCCCCNc1nc2c(s1)CCSc1ccccc1-2 [Example 103, N′-[5-(4,5-Dihydrobenzo[2,3]thiepino[4,5-d][1,3]thiazol-2-ylamino)pentyl]-N,N-diethylsulfamide]
Ki [1]: 3.7 nM | Ki [2]: > 10000 nM

CCN(CC)S(=O)(=O)NCCCCNc1nc2c(s1)CCSc1ccccc1-2 [Example 104, N′-[4-(4,5-Dihydrobenzo[2,3]thiepino[4,5-d][1,3]thiazol-2-ylamino)butyl]-N,N-diethylsulfamide]
Ki [1]: 3.2 nM | Ki [2]: > 10000 nM

CC(C)(C)OC(=O)NCCCCCNc1nc2c(s1)CCSc1ccc(F)cc1-2 [Example 105, tert-Butyl N-{5-[(9-fluoro-4,5-dihydrobenzo[2,3]-thiepino[4,5-d][1,3]thiazol-2-yl)amino]pentyl}-carbamate]
Ki [1]: 91 nM | Ki [2]: > 10000 nM

Source: patent US7273880B2, “Selective NPY (Y5) antagonists” (H. Lunbeck A/S, priority 1999, dated 2007)
